The values below come from patent publication US20240123079A1 (Seagen Inc., priority 2021, published 2024).

SMILES strings stand for the structures.

A word on the EC50: it is the midpoint of the concentration-response curve.

For the assay, the system named is THP1-Dual™ reporter cells. The assay is described as follows: THP1-Dual cell reporter assay (IRF-Lucia luciferase reporter). Particulars: Homo sapiens, THP1-Dual; free compounds, 24 h, Lucia reporter signal; read-out: EC50. The format is cell-based, human. The procedure: THP1-Dual™ Cell Reporter Assay
Potency of compounds and ADCs was evaluated using the THP1-Dual™ cells (InvivoGen PN: thpd-nfis [also referred to as THP1 dual reporter cells]), which contain an IRF-Lucia luciferase reporter. Cells were cultured in RPMI-1640 (Gibco) with 10% heat-inactivated fetal bovine serum, Pen-Strep (100 U/mL-100 μg/mL, Gibco), HEPES (10 mM, Gibco)), sodium pyruvate (1 mM, Gibco), MEM non-essential amino acids (1×, Gibco), GlutaMAX (1×, Gibco), and beta-mercaptoethanol (55 μM, Gibco). Cells were plated in a 96-well flat bottom tissue culture-treated clear polystyrene plate (Corning Costar #3596) at ˜100,000 cells per well in 200 μL with the indicated concentration of the compound or ADC. The supernatant was harvested at 24 hours (compounds) or 48 hours (ADC) post plating for the reporter assay, or as indicated. To measure Lucia reporter signal, 10 μL of the supernatant was combined with 40 μL of QUANTI-Luc™ Luminescence assay reagent (Invivogen PN: rep-qlc1) in a 96-well clear flat bottom tissue culture-treated black polystyrene plate (Corning Costar #3603) and read on a Perkin Elmer Envision plate reader.
STING agonist compounds were assessed for their ability to activate THP1-Dual™ reporter cells, a human monocytic cell line in which type I interferon (IRF) signaling can be monitored via a secreted luciferase reporter protein (Lucia). THP1-Dual™ cells were treated with increasing concentrations of the agonists for 24h, then supernatants were harvested and the Lucia reporter signal was quantified using QUANTI-Luc™ Luminescence assay reagent.
For orientation: In a reporter assay the amount or activity of a reporter protein is the signal.
Regarding `COc1cc(C(N)=O)cc2nc(NC(=O)c3cccs3)n(C/C=C/Cn3c(NC(=O)c4cccs4)nc4cc(C(N)=O)cc(O)c43)c12` [Compound 35], the EC50 is above 10 µM. `CCn1nccc1C(=O)Nc1nc2cc(C(N)=O)cc(O)c2n1C/C=C/Cn1c(NC(=O)c2ccnn2CC)nc2cc(C(N)=O)cc(OC)c21` [Compound 37]: the EC50 was above 10 µM.

`COc1cc(C(N)=O)cc2nc(NC(=O)c3nc(C)cs3)n(C/C=C/Cn3c(NC(=O)c4nc(C)cs4)nc4cc(C(N)=O)cc(O)c43)c12` [Compound 38]: the half-maximal effective concentration (EC50) was above 10 µM. Regarding `COc1cc(C(N)=O)cc2nc(NC(=O)c3cc(C)on3)n(C/C=C/Cn3c(NC(=O)c4cc(C)on4)nc4cc(C(N)=O)cc(O)c43)c12` [Compound 39], the concentration giving a half-maximal response (EC50) is above 10 µM. The figure for `COc1cc(C(N)=O)cc2nc(NC(=O)c3cc(C)sn3)n(C/C=C/Cn3c(NC(=O)c4cc(C)sn4)nc4cc(C(N)=O)cc(O)c43)c12` [Compound 40] is above 10 µM; for `CCn1cccc1C(=O)Nc1nc2cc(C(N)=O)cc(O)c2n1C/C=C/Cn1c(NC(=O)c2cccn2CC)nc2cc(C(N)=O)cc(OC)c21` [Compound 41] it is above 10 µM; for `COc1cc(C(N)=O)cc2nc(NC(=O)c3cccnn3)n(C/C=C/Cn3c(NC(=O)c4cccnn4)nc4cc(C(N)=O)cc(O)c43)c12` [Compound 42] it is above 10 µM. For the compound `COc1cc(C(N)=O)cc2nc(NC(=O)c3ccnnc3)n(C/C=C/Cn3c(NC(=O)c4ccnnc4)nc4cc(C(N)=O)cc(O)c43)c12` [Compound 43], the EC50 is above 10 µM. The figure for `COc1cc(C(N)=O)cc2nc(NC(=O)c3ncccn3)n(C/C=C/Cn3c(NC(=O)c4ncccn4)nc4cc(C(N)=O)cc(O)c43)c12` [Compound 44] is above 10 µM; for `COc1cc(C(N)=O)cc2nc(NC(=O)c3ccncn3)n(C/C=C/Cn3c(NC(=O)c4ccncn4)nc4cc(C(N)=O)cc(O)c43)c12` [Compound 45] it is above 10 µM.

For the compound `COc1cc(C(N)=O)cc2nc(NC(=O)c3cnccn3)n(C/C=C/Cn3c(NC(=O)c4cnccn4)nc4cc(C(N)=O)cc(O)c43)c12` [Compound 46], the EC50 was above 10 µM. In the case of `COc1cc(C(N)=O)cc2nc(NC(=O)Cn3cccn3)n(C/C=C/Cn3c(NC(=O)Cn4cccn4)nc4cc(C(N)=O)cc(O)c43)c12` [Compound 47], the 50% effective concentration (EC50) was above 10 µM.

As for `COc1cc(C(N)=O)cc2nc(NC(=O)Cn3nc(C)cc3C)n(C/C=C/Cn3c(NC(=O)Cn4nc(C)cc4C)nc4cc(C(N)=O)cc(O)c43)c12` [Compound 48], the EC50 was above 10 µM. The figure for `COc1cc(C(N)=O)cc2nc(NC(=O)C(C)n3cc(Cl)cn3)n(C/C=C/Cn3c(NC(=O)C(C)n4cc(Cl)cn4)nc4cc(C(N)=O)cc(O)c43)c12` (centres unmarked) [Compound 49] is above 10 µM; for `COc1cc(C(N)=O)cc2nc(NC(=O)c3cc(Cl)nn3C)n(C/C=C/Cn3c(NC(=O)c4cc(Cl)nn4C)nc4cc(C(N)=O)cc(O)c43)c12` [Compound 50] it is above 10 µM.

Take `COc1cc(C(=O)Nc2nc3cc(C(N)=O)cc(O)c3n2C/C=C/Cn2c(NC(=O)c3cc(OC)nn3C)nc3cc(C(N)=O)cc(OC)c32)n(C)n1` [Compound 51]: the EC50 was above 10 µM. For the compound `CCn1nc(C(F)(F)F)cc1C(=O)Nc1nc2cc(C(N)=O)cc(O)c2n1C/C=C/Cn1c(NC(=O)c2cc(C(F)(F)F)nn2CC)nc2cc(C(N)=O)cc(OC)c21` [Compound 52], the concentration giving a half-maximal response (EC50) is above 10 µM.

On to `CCc1cc(C(=O)Nc2nc3cc(C(N)=O)cc(O)c3n2C/C=C/Cn2c(NC(=O)c3cc(CC)nn3C)nc3cc(C(N)=O)cc(OC)c32)n(C)n1` [Compound 53], for which the EC50 was above 10 µM. Regarding `COc1cc(C(N)=O)cc2nc(NC(=O)c3cc(C)nn3C)n(C/C=C/Cn3c(NC(=O)c4cc(C)nn4C)nc4cc(C(N)=O)cc(O)c43)c12` [Compound 54], the EC50 was above 10 µM. Turning to `COc1cc(C(N)=O)cc2nc(NC(=O)c3cc(C)n[nH]3)n(C/C=C/Cn3c(NC(=O)c4cc(C)n[nH]4)nc4cc(C(N)=O)cc(O)c43)c12` [Compound 55], the concentration for a half-maximal effect (EC50) was above 10 µM.
